# Values of other authors, collected in US20120028943A1, “Medicinal Cream Made Using Fluticasone Propionate And Chitosan And A Process To Make The Same” (APEX LABORATORIES PRIVATE LIMITED, priority 2009, published 2012).
# Tests used:
# [1] = test system: HPA (hypothalamic-pituitary-adrenal)-axis; conditions: after dermal administration
# [2] = biological target: T1, human glucocorticoid receptors (Homo sapiens, UniProt P04150)
# T1 sequence (P04150 1-777): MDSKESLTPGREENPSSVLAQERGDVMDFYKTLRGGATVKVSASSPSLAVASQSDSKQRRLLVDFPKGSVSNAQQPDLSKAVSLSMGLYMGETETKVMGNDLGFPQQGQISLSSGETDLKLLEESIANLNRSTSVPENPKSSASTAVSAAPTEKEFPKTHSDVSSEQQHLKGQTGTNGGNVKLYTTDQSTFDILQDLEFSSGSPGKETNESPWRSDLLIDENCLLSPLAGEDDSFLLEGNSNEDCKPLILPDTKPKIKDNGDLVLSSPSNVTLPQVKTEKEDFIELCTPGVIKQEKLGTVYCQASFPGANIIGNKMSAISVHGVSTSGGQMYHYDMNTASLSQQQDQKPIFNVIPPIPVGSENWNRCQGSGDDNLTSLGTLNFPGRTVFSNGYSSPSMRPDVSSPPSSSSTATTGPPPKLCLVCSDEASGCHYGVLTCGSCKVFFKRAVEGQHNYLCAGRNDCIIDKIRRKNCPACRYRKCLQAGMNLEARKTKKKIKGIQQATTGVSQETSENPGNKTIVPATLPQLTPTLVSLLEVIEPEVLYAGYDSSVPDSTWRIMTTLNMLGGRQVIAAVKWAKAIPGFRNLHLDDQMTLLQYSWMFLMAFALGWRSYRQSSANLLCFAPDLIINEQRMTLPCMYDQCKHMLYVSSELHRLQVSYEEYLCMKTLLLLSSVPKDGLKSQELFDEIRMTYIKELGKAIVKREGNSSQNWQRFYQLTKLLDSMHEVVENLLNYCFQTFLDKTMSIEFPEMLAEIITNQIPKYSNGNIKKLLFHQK
# [3] = not given; remark: listed apart in the source
# human transcortin = biological target: T2, human transcortin (Homo sapiens, UniProt P08185)
# T2 sequence (P08185 23-405): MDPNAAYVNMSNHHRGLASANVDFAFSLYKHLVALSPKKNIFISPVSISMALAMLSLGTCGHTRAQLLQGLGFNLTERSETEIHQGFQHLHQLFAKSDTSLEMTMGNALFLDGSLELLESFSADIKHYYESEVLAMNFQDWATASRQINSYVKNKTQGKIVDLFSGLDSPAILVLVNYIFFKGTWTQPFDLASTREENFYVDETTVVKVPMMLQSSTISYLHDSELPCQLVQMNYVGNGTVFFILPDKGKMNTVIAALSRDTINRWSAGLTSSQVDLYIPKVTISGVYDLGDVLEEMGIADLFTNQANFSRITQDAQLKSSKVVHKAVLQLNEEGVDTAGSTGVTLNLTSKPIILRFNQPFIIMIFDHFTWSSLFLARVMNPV
# cytochrome P450 3A4 = cytochrome P450 3A4 (Homo sapiens, UniProt P08684); conditions: liver
# Sequence of cytochrome P450 3A4 (P08684 whole entry): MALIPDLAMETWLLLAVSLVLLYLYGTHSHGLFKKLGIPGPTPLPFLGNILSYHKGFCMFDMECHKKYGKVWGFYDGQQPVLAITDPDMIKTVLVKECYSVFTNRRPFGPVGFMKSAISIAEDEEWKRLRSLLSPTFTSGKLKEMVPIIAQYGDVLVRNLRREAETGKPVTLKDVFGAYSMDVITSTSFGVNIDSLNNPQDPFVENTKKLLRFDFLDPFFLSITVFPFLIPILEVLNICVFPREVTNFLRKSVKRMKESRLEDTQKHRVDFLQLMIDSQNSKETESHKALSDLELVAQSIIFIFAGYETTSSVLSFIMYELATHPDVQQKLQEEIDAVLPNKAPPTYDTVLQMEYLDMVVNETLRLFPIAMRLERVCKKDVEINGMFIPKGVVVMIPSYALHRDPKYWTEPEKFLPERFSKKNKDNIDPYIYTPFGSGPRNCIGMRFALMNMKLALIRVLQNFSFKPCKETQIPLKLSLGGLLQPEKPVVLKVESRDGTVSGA
# human plasma proteins = conditions: averaged
# [4] = biological target: T1, human glucocorticoid receptors; conditions: in vitro
structure (smiles),measurement,setting,value
"CCC(=O)O[C@]1(C(=O)SCF)[C@H](C)C[C@H]2[C@@H]3C[C@H](F)C4=CC(=O)C=C[C@]4(C)[C@@]3(F)[C@@H](O)C[C@@]21C [Fluticasone propionate, S-(fluoromethyl)6α,9-difluoro-11β-17-dihydroxy-16α-methyl-3-oxoandrosta-1,4-diene-17β-carbothioate, 17-propionate]",topical anti-inflammatory potency,,high
same,HPA-axis suppressive activity,[1],low
same,selectivity to the glucocorticoid receptor,[2],high degree of selectivity
same,affinity for human glucocorticoid receptors,[2]; in vitro,strong affinity
same,solubility in 95% ethanol,[3]; 95% ethanol,slightly soluble
same,solubility in dimethyl sulfoxide,[3]; dimethyl sulfoxide,freely soluble
same,solubility in dimethylformamide,[3]; dimethylformamide,freely soluble
same,solubility in methanol,[3]; methanol,slightly soluble
same,solubility in water,[3]; water,practically insoluble
same,binding to human transcortin,human transcortin,not significantly hound
same,metabolism,cytochrome P450 3A4,metabolized in the liver by cytochrome P450 3A4-mediated hydrolysis
same,percentage bound to human plasma proteins,human plasma proteins,91%
same,agonist activity at human glucocorticoid receptors,[4],agonist activity
same,binding to erythrocytes,erythrocytes,weakly and reversibly bound
